Results: patent US10208033B2, “β-carboline, dihydro-β-carboline and tetrahydro-β-carboline alkaloid derivatives and preparation methods same and use in aspects of preventing and treating plant viruses, fungicides and insecticides” (NANKAI UNIVERSITY, priority 2013, dated 2019)

Legend:
[1] = tested on: Fusarium graminearumt; assay: microbe, parasite or virus in culture; assay type: cell-based; conditions: for Bactericidal activity (%) Fusarium graminearumt: 50 mg/kg
[2] = tested on: tobacco mosaic virus (TMV); assay: Anti-TMV in vivo protective effect; design: species or system tobacco mosaic virus (host Nicotiana tabacum L.cv.Xanthi NN); conditions: for inhibition at 100 µg/mL / inhibition at 500 µg/mL: Tobacco mosaic virus, read-out: Relative inhibition rate (%) In vivo protection
[3] = tested on: Fusarium fujikuroi; assay: Fungicidal (bactericidal) activity in vitro, PDA colony diameter; assay type: cell-based; conditions: 50 mg/kg
[4] = tested on: tobacco mosaic virus (TMV); assay: Anti-TMV activity, overall statements on Table 1; assay type: in vivo, tobacco mosaic virus (host Nicotiana tabacum L.cv.Xanthi NN); conditions: 100 μg/mL versus ningnanmycin at 100 μg/mL
[5] = tested on: Macrophoma kawatsukai; assay: Fungicidal (bactericidal) activity in vitro, PDA colony diameter; assay type: cell-based; conditions: 50 mg/kg
[6] = tested on: potato late blight; assay: microbe, parasite or virus in culture; assay type: cell-based
[7] = tested on: Bipolaria maydis; assay: organism not typed; assay type: cell-based; conditions: for Bactericidal activity (%) Bipolaria maydis: 50 mg/kg
[8] = tested on: Rhizoctonia cereali; assay: Fungicidal (bactericidal) activity in vitro, PDA colony diameter; assay type: cell-based; conditions: 50 mg/kg
[9] = tested on: tobacco mosaic virus (TMV); assay: Anti-TMV in vitro effect (half-leaf soaking); assay type: cell-based, tobacco mosaic virus (host Nicotiana tabacum L.cv.Xanthi NN); conditions: for inhibition at 100 µg/mL / inhibition at 500 µg/mL: Tobacco mosaic virus, read-out: Relative inhibition rate (%) In vitro activity
[10] = tested on: Phytophthora capsici; assay: Fungicidal (bactericidal) activity in vitro, PDA colony diameter; assay type: cell-based; conditions: 50 mg/kg
[11] = tested on: Cercospora arachidicola; assay: as above; assay type: cell-based; conditions: 50 mg/kg
[12] = tested on: cotton bollworms; assay: whole plant or invertebrate; conditions: for mortality at 600 mg/kg: Helicoverpa armigera, in Gossypium hirsutum, read-out: Cotton bollworm Mortality (%); for Cotton bollworm Mortality (%): concentration 600 mg/kg
Experimental: Experimental method of cotton bollworms: feed and drug mixing method: measure 3 mL of prepared solution and add it to about 27 g of newly prepared feed, thereby obtaining needed concentration through dilution by 10 times.

[13] = tested on: Alternaria solani; assay: Fungicidal (bactericidal) activity in vitro, PDA colony diameter; assay type: cell-based; conditions: 50 mg/kg
[14] = tested on: corn borers; assay: whole plant or invertebrate; conditions: read-out: Corn borer Mortality (%)
[15] = tested on: Rhizoctonia solani; assay: Fungicidal (bactericidal) activity in vitro, PDA colony diameter; assay type: cell-based; conditions: 50 mg/kg
[16] = tested on: tobacco mosaic virus (TMV); assay: Anti-TMV in vivo inactivation; design: species or system tobacco mosaic virus (host Nicotiana tabacum L.cv.Xanthi NN); conditions: for inhibition at 100 µg/mL / inhibition at 500 µg/mL: Tobacco mosaic virus, read-out: Relative inhibition rate (%) In vivo inactivation
[17] = tested on: armyworms; assay type: in vivo; conditions: concentration 600 mg/kg
[18] = tested on: mosquito larvae; assay: whole plant or invertebrate; conditions: 24 h; for mortality at 10 mg/kg: Culex pipiens, read-out: Mosquito larvae Mortality (%); for Mosquito larvae Mortality (%): concentration 10 mg/kg
Method in brief: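 Compound dissolved in acetone (or other solvent) to a 1000 ppm stock and diluted in water to 5 ppm. Ten Culex pipiens pallens larvae at the start of the fourth instar, laboratory-reared, added per beaker; solvent-only aqueous control.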

[19] = tested on: tobacco mosaic virus (TMV); assay: Anti-TMV in vivo therapeutic effect; design: species or system tobacco mosaic virus (host Nicotiana tabacum L.cv.Xanthi NN); conditions: for inhibition at 100 µg/mL / inhibition at 500 µg/mL: Tobacco mosaic virus, read-out: Relative inhibition rate (%) In vivo therapy
[20] = tested on: Botrytis cinerea; assay: Fungicidal (bactericidal) activity in vitro, PDA colony diameter; assay type: cell-based; conditions: 50 mg/kg
[21] = tested on: cucumber fusarium wilt; assay: as above; assay type: cell-based; conditions: 50 mg/kg
[22] = tested on: Sclerotinia scleotiorum; assay: as above; assay type: cell-based; conditions: 50 mg/kg
[23] = tested on: Colletotrichum orbiculare; assay: as above; assay type: cell-based; conditions: 50 mg/kg
[24] = tested on: corn borers; conditions: concentration 600 mg/kg

SMILES: CC1=NCCc2c1[nH]c1ccccc21 [Harmalan]
- inhibition of growth at 50 mg/kg ([1]; Fusarium, 96 h, read-out: Bactericidal activity (%) Fusarium graminearumt): 21.4%
- inhibition at 100 µg/mL ([2]; treatment dose 100 μg/mL): 35.6%
- inhibition at 500 µg/mL ([2]; treatment dose 500 μg/mL): 60.3%
- inhibition of growth at 50 mg/kg ([3]; Fusarium fujikuroi, 96 h): 28.6%
- anti-TMV activity compared with ningnanmycin [4]: equivalent to the activity of commercial variety ningnanmycin
- inhibition at 50 mg/kg [5]: 2.4%
- inhibition of growth at 50 mg/kg ([6]; Phytophthora infestans, 96 h, read-out: Bactericidal activity (%) potato late blight): 31.8%
- inhibition at 50 mg/kg ([7]; read-out: Bactericidal activity (%) Bipolaria maydis): 27.3%
- inhibition of growth at 50 mg/kg ([8]; Rhizoctonia, 96 h): 55.3%
- inhibition at 100 µg/mL ([9]; treatment dose 100 μg/mL): 30%
- inhibition at 500 µg/mL ([9]; treatment dose 500 μg/mL): 58.6%
- inhibition of growth at 50 mg/kg ([10]; Phytophthora capsici, 96 h): 0%
- inhibition of growth at 50 mg/kg ([11]; Mycosphaerella arachidis, 96 h): 76.9%
- mortality at 600 mg/kg [12]: 10%
- inhibition of growth at 50 mg/kg ([13]; Alternaria solani, 96 h): 26.3%
- mortality at 600 mg/kg [14]: 15%
- inhibition of growth at 50 mg/kg ([15]; Rhizoctonia solani, 96 h): 19.7%
- inhibition at 100 µg/mL ([16]; treatment dose 100 μg/mL): 32.7%
- inhibition at 500 µg/mL ([16]; treatment dose 500 μg/mL): 62.3%
- Armyworm Mortality (%) [17]: 20%
- mortality at 10 mg/kg [18]: 35%
- inhibition at 100 µg/mL ([19]; treatment dose 100 μg/mL): 34.8%
- inhibition at 500 µg/mL ([19]; treatment dose 500 μg/mL): 55.1%
- inhibition of growth at 50 mg/kg ([20]; Botrytis cinerea, 96 h): 15.2%
- inhibition of growth at 50 mg/kg ([21]; Fusarium, 96 h): 23.1%
- inhibition of growth at 50 mg/kg ([22]; Sclerotinia, 96 h): 19.6%
- inhibition of growth at 50 mg/kg ([23]; Colletotrichum orbiculare, 96 h): 25%

SMILES: C[C@@H]1N[C@H](C(=O)NN=Cc2cccs2)Cc2c1[nH]c1ccccc21 [Ic-20, (1S, 3S)—N′-(thiophene-2-methylene)-1-methyl-2,3,4,9-tetrahydropyridino [3,4-b] indol-3-formylhydrazine]
- Bactericidal activity (%) Fusarium graminearumt [1]: 62.1%
- Corn borer Mortality (%) [24]: 30%
- Relative inhibition rate (%) In vivo protection ([2]; treatment dose 100 μg/mL): 31.8%
- Relative inhibition rate (%) In vivo protection ([2]; treatment dose 500 μg/mL): 61.3%
- Bactericidal activity (%) Fusarium fujikuroi [3]: 28.6%
- anti-TMV activity compared with ningnanmycin [4]: equivalent to the activity of commercial variety ningnanmycin
- Bactericidal activity (%) Macrophoma kawatsukai [5]: 55.6%
- Bactericidal activity (%) potato late blight [6]: 36.0%
- Bactericidal activity (%) Bipolaria maydis [7]: 44.0%
- Bactericidal activity (%) Rhizoctonia cereali [8]: 72.5%
- Relative inhibition rate (%) In vitro activity ([9]; treatment dose 100 μg/mL): 23%
- Relative inhibition rate (%) In vitro activity ([9]; treatment dose 500 μg/mL): 58.5%
- Bactericidal activity (%) Phytophthora capsici [10]: 68.4%
- Bactericidal activity (%) Cercospora arachidicola [11]: 47.1%
- Cotton bollworm Mortality (%) [12]: 20%
- Bactericidal activity (%) Alternaria solani [13]: 45.0%
- Bactericidal activity (%) Rhizoctonia solani [15]: 46.1%
- Relative inhibition rate (%) In vivo inactivation ([16]; treatment dose 100 μg/mL): 29.6%
- Relative inhibition rate (%) In vivo inactivation ([16]; treatment dose 500 μg/mL): 59.1%
- Armyworm Mortality (%) [17]: 35%
- Mosquito larvae Mortality (%) [18]: 75%
- Relative inhibition rate (%) In vivo therapy ([19]; treatment dose 100 μg/mL): 25.1%
- Relative inhibition rate (%) In vivo therapy ([19]; treatment dose 500 μg/mL): 52.3%
- Bactericidal activity (%) Botrytis cinerea [20]: 72.7%
- Bactericidal activity (%) Cucumber fusarium wilt [21]: 26.9%
- Bactericidal activity (%) Sclerotinia scleotiorum [22]: 88.2%
- Bactericidal activity (%) Colletotrichum orbiculare [23]: 44.4%

SMILES: C[C@@H]1N[C@H](C(=O)NNC(=O)C2CCCC2)Cc2c1[nH]c1ccccc21 [Id-7, (1S, 3S)—N′-(cyclopentyl formyl)-1-methyl-2,3,4,9-tetrahydropyridino [3,4-b] indol-3-formylhydrazine]
- Bactericidal activity (%) Fusarium graminearumt [1]: 15.4%
- Corn borer Mortality (%) [24]: 40%
- Relative inhibition rate (%) In vivo protection ([2]; treatment dose 100 μg/mL): 26.6%
- Relative inhibition rate (%) In vivo protection ([2]; treatment dose 500 μg/mL): 53.9%
- Bactericidal activity (%) Fusarium fujikuroi [3]: 29.4%
- anti-TMV activity compared with ningnanmycin [4]: equivalent to the activity of commercial variety ningnanmycin
- Bactericidal activity (%) Macrophoma kawatsukai [5]: 33.3%
- Bactericidal activity (%) potato late blight [6]: 21.7%
- Bactericidal activity (%) Bipolaria maydis [7]: 28.0%
- Bactericidal activity (%) Rhizoctonia cereali [8]: 29.7%
- Relative inhibition rate (%) In vitro activity ([9]; treatment dose 100 μg/mL): 22.2%
- Relative inhibition rate (%) In vitro activity ([9]; treatment dose 500 μg/mL): 47.2%
- Bactericidal activity (%) Phytophthora capsici [10]: 15.2%
- Bactericidal activity (%) Cercospora arachidicola [11]: 9.1%
- Cotton bollworm Mortality (%) [12]: 30%
- Bactericidal activity (%) Alternaria solani [13]: 9.5%
- Bactericidal activity (%) Rhizoctonia solani [15]: 1.4%
- Relative inhibition rate (%) In vivo inactivation ([16]; treatment dose 100 μg/mL): 20.3%
- Relative inhibition rate (%) In vivo inactivation ([16]; treatment dose 500 μg/mL): 42.4%
- Armyworm Mortality (%) [17]: 40%
- Mosquito larvae Mortality (%) [18]: 80%
- Relative inhibition rate (%) In vivo therapy ([19]; treatment dose 100 μg/mL): 18.6%
- Relative inhibition rate (%) In vivo therapy ([19]; treatment dose 500 μg/mL): 51.4%
- Bactericidal activity (%) Botrytis cinerea [20]: 50.0%
- Bactericidal activity (%) Cucumber fusarium wilt [21]: 9.1%
- Bactericidal activity (%) Sclerotinia scleotiorum [22]: 7.7%
- Bactericidal activity (%) Colletotrichum orbiculare [23]: 16.0%

SMILES: CC1NCCc2c1[nH]c1ccccc21 (stereo not shown) [Tetrahydroharmane]
- inhibition at 100 µg/mL ([2]; treatment dose 100 μg/mL): 24.6%
- inhibition at 500 µg/mL ([2]; treatment dose 500 μg/mL): 59.5%
- anti-TMV activity compared with ningnanmycin [4]: equivalent to the activity of commercial variety ningnanmycin
- inhibition at 100 µg/mL ([9]; treatment dose 100 μg/mL): 28.4%
- inhibition at 500 µg/mL ([9]; treatment dose 500 μg/mL): 63.7%
- mortality at 600 mg/kg [12]: 15%
- mortality at 600 mg/kg [14]: 10%
- inhibition at 100 µg/mL ([16]; treatment dose 100 μg/mL): 23.5%
- inhibition at 500 µg/mL ([16]; treatment dose 500 μg/mL): 64.2%
- Armyworm Mortality (%) [17]: 15%
- mortality at 10 mg/kg [18]: 30%
- inhibition at 100 µg/mL ([19]; treatment dose 100 μg/mL): 20.4%
- inhibition at 500 µg/mL ([19]; treatment dose 500 μg/mL): 57.2%
